The values that follow come from publication PMC5610309, “In vivo target exploration of apidaecin based on Acquired Resistance induced by Gene Overexpression (ARGO assay)” (Scientific Reports, 2017).

Where no end group is shown, it is not given here. [ ]: non-standard residue; d: D form.

For test [1], the system named is enoyl-ACP reductase (FabI). Nature of the test: ARGO assay, positive control, FabI-overexpressing E. coli. The format is cell-based, Escherichia coli. As to conditions: 250 nM triclosan; increasing IPTG (Fig. S2). As to the method:
IPTG Concentration / μM IPTG Concentartion / μM
Figure S2. Acquired resistance assay induced by overexpression of target proteins. A:
concentration. Black line: no triclosan (OD Tc(-)). Gray line: 250 nM triclosan (OD Tc(+)).
overexpression. […] Black line: no
trimethoprim. Gray line: 125 μM trimethoprim. D: The degree of resistance against

In test [2] the test system is dihydrofolate reductase (FolA). As to conditions: 125 μM trimethoprim; increasing IPTG (Fig. S2).
Description: (§4) The recombinant E. coli strain JM109 harboring pCA24N derivatives were grown on 2 mL LB medium containing 30 µg/mL chloramphenicol in a test tube, with reciprocal shaking at 175 rpm at 37 °C for 18 h. A total of 80 μL culture medium was transferred into fresh 2 mL LB medium containing 30 µg/mL chloramphenicol and different concentrations of IPTG (see Supplementary Information for detail), and further incubated at 37 °C with until the OD at 600 nm reached 0.4. The pre-culture was diluted 10^5 times with PB medium containing 30 µg/mL chloramphenicol so that the initial cell density was approximately 1000 colony forming units/mL. Then a 50 µL aliquot was combined with a 50 µL mixture of apidaecin and IPTG (final concentration of apidaecin was 6.25 µM). As a control, 50 µL IPTG and 50 µL sterilized water were added, respectively. The cells were cultivated in 96-well plates using a microplate shaker (BioShaker M-BR-024 Taitec, Shizuoka, Japan) with shaking at 1200 rpm at 30 °C for 18 h. […] Cell growth in a 96-well plate was optically measured using a microplate reader (iMark Microplate Absorbance Reader, Bio-rad) at a wavelength of 595 nm. The degree of resistance against apidaecin was defined as the OD obtained with the addition of IPTG and apidaecin divided by the OD with the addition of IPTG only.1 Degreeofresistance=ODwithapidaecinandIPTG/ODwithIPTG […]
Test [3] relates to lacZ mRNA transcription in E. coli MG1655. Nature of the test: Quantification of lacZ mRNA by real-time reverse transcriptase-PCR. The class given is cell-based, Escherichia coli. As to conditions: 500 μM and 0.1 mM IPTG; quantitative real-time PCR. As to the method:
(§1) The 96-well plate culture was started following Procedure B. After 60 min, 0.1 mM IPTG was added and the plate was incubated for an additional 60 min.
The E. coli strain MG1655 from Procedure C were harvested by centrifugation at 4 °C, and total RNA was extracted using Isogen (Nippongene, Toyama, Japan) according to the manufacturer’s instructions. The reverse transcriptase reaction was performed using PrimeScript RT-PCR Kit (Takara, Tokyo, Japan) based on the provided protocol. The lacZ fragment was amplified using a pair of primers: lacZ_RTf1, […] and lacZ_RTr1, with […] used as the standard. The standard curve was made in the range of 10^−3 to 10^−7 ng DNA/μL. A total of 6 μL reverse transcriptase reaction product was combined with 10 μL TaqMan Gene Expression Master Mix (Applied Biosystems, Foster City, CA, USA), 1 μL lacZ_RTf1, 1 μL lacZ_RTr1, and 2 μL TaqMan probe lacZ_2116, […], which was bound to fluorescein as a reporter and NFQ-MGB as a quencher. The samples were prepared in triplicate and transferred to a MicroAmp Fast Optical 48-well Reaction Plate (Applied Biosystems) and sealed with a MicroAmp Optical 48-well Adhesive Film. The plate was centrifuged at 1,970 g for 10 min at 4 °C. Real-time PCR (qPCR) was performed using the StepOne real-time PCR system (Applied Biosystems). […]
(Quantitative PCR measures a nucleic acid by following its amplification.)

Test [4] relates to lacZ expression in PURE system (PrfA-dependent termination). Nature of the test: Inhibitory assay using the in vitro transcription-translation system (PURE system). The class given is biochemical. Conditions: 200 μM apidaecin; for inhibition ratio of lacZ (UAG) expression: PrfB omitted, 37 °C, 3 h, immunoblot. As to the method:
The PCR products were purified by agarose gel extraction and used for second PCR to add the T7 promoter sequence using a forward primer 2, […], and aforementioned reverse primers. The amplified DNA was treated with chloroform/phenol/isoamyl alcohol, concentrated by ethanol precipitation, and diluted to 100 ng/μl using RNase free water. The DNA solution was used for in vitro transcription-translation reaction using PUREfrex ver 1.0 (GeneFrontier Corp., Chiba, Japan). The solution I, II, and III provided by the kit protocol was combined with the apidaecin solution to contain 0 to 200 μM apidaecin. […] Ten microliter solution I, 1 μL solution II, 1 μL solution III, 0.1 μL 6 μM T7 RNA polymerase, 0.5 μL 4 or 0.8 μM RF1, 0.5 μL 4 μM RF3, 0.5 μL 40 μM RRF, and 0–4 μL 1 mM apidaecin were combined and diluted to 19 μL with RNAse free water. The mixture was incubated at room temperature for 15 min, and 1 μL template DNA (LacZ [UAG]) was added. Then the mixture was further incubated at 37 °C from 3 h. Then 1 μL reaction mixture was used for immnoblot analysis.
On the technique in general: In western blotting, separated proteins are transferred to a membrane and probed.

Test [5] relates to PrfB. Nature of the test: ARGO assay, apidaecin resistance of PrfB-overexpressing E. coli (ASKA clone). As to conditions: 6.25 μM apidaecin; E. coli JM109 ASKA clone, IPTG-induced; 30 °C, 18 h; OD595. The format is cell-based, Escherichia coli.
Description: as §4
For test [6], the system named is β-galactosidase protein synthesis in E. coli MG1655. Nature of the test: Immunoblot analysis of native LacZ. The format is cell-based, Escherichia coli. As to conditions: 500 μM and 0.1 mM IPTG. How it is done:
as §1
(§2) The E. coli strain MG1655 from Procedure C were harvested and suspended in lysis buffer containing 50 mM sodium phosphate (pH 7.0), 10 mM imidazol, and 300 mM NaCl. The OD was normalized using lysis buffer, after which the crude extract was prepared using sonication on ice 5 s × 5 times. Anti-β-galactosidase antibody (Biotin) ab6645 was purchased from abcam (Cambridge, UK) and used at a 10^5-fold dilution. Immun-Star Goat Anti-Rabbit (GAR)-HRP Conjugate (Biorad) was used as the secondary antibody. Bands were detected using the ECL Select Western Blotting Detection Reagent (GE Healthcare, Little Chalfont, UK) and were recorded on ChemiDox XRS (Biorad). Band density was quantified using ImageJ software.

Test [7] has as its system lacZ reporter gene expression in E. coli MG1655. Nature of the test: Inhibition assay of LacZ expression (X-gal chromogenesis). The format is cell-based, Escherichia coli. Conditions: 500 μM; E. coli treated 1 h, then IPTG; ΔOD595 with and without X-gal; three trials. How it is done:
(§3) The 96-well plate culture was started as well as Procedure B with a modification that the cells were resuspended in 1 mL PB medium containing 100 μg/ml 5-bromo-4-chloro-3-indolyl-β-D-galactopyranoside (X-gal). After 60 min, 0.1 mM IPTG was added and the plate was further incubated for 120 min. The OD of the culture in the test tube was measured using a UV-VIS spectrophotometer (Genesys20, Thermo Scientific, Waltham, MA, USA) at 600 nm, and OD in the 96-well plate was monitored at 595 nm using an iMark Microplate Absorbance Reader (Biorad, Hercules, CA, USA).
E. coli MG1655 cells were cultivated using Procedure D. The activity of LacZ was estimated based on the subtraction of ODs at 595 nm obtained with and without supplement of X-gal.

Test [8] deals with peptide chain release factor 1 (PrfA). Nature of the test: ARGO assay, apidaecin resistance of PrfA-overexpressing E. coli (ASKA clone). As to conditions: 6.25 μM apidaecin; E. coli JM109 ASKA clone, IPTG-induced; 30 °C, 18 h; OD595; three trials. The format is cell-based, Escherichia coli.
Description: as §4
Test [9] concerns E. coli. Nature of the test: Growth of E. coli in 96-well plate culture with antimicrobial agent. The format is cell-based, Escherichia coli. As to conditions: 500 μM. As to the method:
E. coli were grown on 2 mL LB medium in a test tube containing 10 g/L trypton, 5 g/L Bacto yeast extract, and 10 g/L sodium chloride, with reciprocal shaking at 175 rpm at 30 °C for 14 h. A total of 20 μL culture medium was transferred into 2 mL fresh LB medium and incubated at 30 °C until the OD at 600 nm reached 0.2.
The cells from Procedure A were washed with 2 mL PB medium containing 10 g/L trypton and 9 g/L sodium chloride, and re-suspended in 1 mL PB medium. A total of 80 μL medium was combined with 20 μL antimicrobial agents, followed by incubation in a 96-well plate at 30 °C for 4 h with shaking at 1200 rpm.
as §3

The subject of test [10] is lacZ expression in MG1655(lacZ-UAA), MG1655(lacZ-UGA), MG1655(lacZ-UAG). Nature of the test: In vivo inhibitory assay of lacZ expression with different stop codons (immunoblot). As to conditions: 250 and 500 μM apidaecin. The format is cell-based, Escherichia coli. As to the method:
as §2
The C-terminal region of the lacZ gene in E. coli chromosomal DNA was replaced with three DNA fragments containing three stop codons (Fig. S4). The DNA fragments including a flippase recognition target (FRT) cassette with a kanamycin-resistant gene, and the C-terminal sequence of the lacZ gene with three stop codons, were amplified from pKD13 using three forward primers: […], […], and […] (stop codons are underlined), and a reverse primer: […]. The template DNA in the PCR products was removed by DpnI treatment. […] Ampicilline-sensitive colonies were chosen and recombination in their chromosomal DNA was evaluated by colony PCR and sequencing. […]

The test system of test [11] is E. coli. As to conditions: relative to wild type apidaecin Ho +; cited from earlier work.

In the case of `Oc1cc(Cl)ccc1Oc1ccc(Cl)cc1Cl` [triclosan], the “sensitivity of E. coli upon overexpression of FabI” value in [1] is on record as “reduced the sensitivity”.

Take `COc1cc(Cc2cnc(N)nc2N)cc(OC)c1OC` [trimethoprim]: in test [2], the “sensitivity of E. coli upon overexpression of FolA” value is listed as “reduced the sensitivity”.

“GNNRPVYIPQPRPPHPRL [apidaecin, Apidaecin Ib, proline-rich AMP isolated from the hemolymph of honeybees; purchased from Bex Corp]”: in test [3], the “influence on lacZ mRNA transcription” value was “no significant influence”. The “inhibition efficiency of lacZ expression by stop codon” value in test [4] (lacZ-UAA, lacZ-UGA, lacZ-UAG templates, UAG stop codon) is recorded as “most efficient inhibition”. The entries for the “inhibition ratio of lacZ (UAG) expression” value in test [4] (low PrfA concentration (20 nM PrfA)) and in test [4] (standard PrfA concentration (100 nM PrfA)) were 45% and 21%, respectively. Further, the “cell growth in the presence of apidaecin upon PrfB overexpression” value in [5] is reported as “did not promote cell growth”. Besides, the β-galactosidase protein synthesis entry in test [6] was “considerably diminished”. The “inhibition of β-galactosidase-mediated chromogenesis” value in test [7] was “almost completely inhibited”. In addition, the “degree of resistance against apidaecin upon PrfA overexpression (OD with apidaecin and IPTG / OD with IPTG)” value in [8] is given as “up to 80%”. In addition, in [9] (PB medium, 96-well plate, 30 °C, OD595, three trials), the “inhibition of cell growth” value is listed as “almost completely inhibited”. Besides, the “expression levels of whole proteins” value in test [10] (SDS-PAGE, all three stop codon constructs) is reported as “decreased expression levels of whole proteins”. The “degree of inhibition of lacZ expression, UAG stop codon versus other constructs” value in test [10] (immunoblot anti-LacZ, UAG recognized only by PrfA) is recorded as “considerably stronger inhibition”.

For “L17D-L mutant of apidaecin Ho + (GKPRPQQVPPRPPHPR[dL])”, in test [11], the “antibacterial activity toward E. coli compared to wild type peptide” value is on record as 0.1 fold.

For the compound L18dL apidaecin 1b, the “antimicrobial effect against E. coli” value in [9] (data not shown) is given as “no antimicrobial effect”.
